Here are results for 50 compounds from US10584134B2, “Use of physiological cooling active ingredients, and agents containing such active ingredients” (SYMRISE AG, priority 2009, dated 2020).

Counter-ions that a name gives are not always drawn.

Sequence of human TRPM8 receptor (Q7Z2W7 whole entry): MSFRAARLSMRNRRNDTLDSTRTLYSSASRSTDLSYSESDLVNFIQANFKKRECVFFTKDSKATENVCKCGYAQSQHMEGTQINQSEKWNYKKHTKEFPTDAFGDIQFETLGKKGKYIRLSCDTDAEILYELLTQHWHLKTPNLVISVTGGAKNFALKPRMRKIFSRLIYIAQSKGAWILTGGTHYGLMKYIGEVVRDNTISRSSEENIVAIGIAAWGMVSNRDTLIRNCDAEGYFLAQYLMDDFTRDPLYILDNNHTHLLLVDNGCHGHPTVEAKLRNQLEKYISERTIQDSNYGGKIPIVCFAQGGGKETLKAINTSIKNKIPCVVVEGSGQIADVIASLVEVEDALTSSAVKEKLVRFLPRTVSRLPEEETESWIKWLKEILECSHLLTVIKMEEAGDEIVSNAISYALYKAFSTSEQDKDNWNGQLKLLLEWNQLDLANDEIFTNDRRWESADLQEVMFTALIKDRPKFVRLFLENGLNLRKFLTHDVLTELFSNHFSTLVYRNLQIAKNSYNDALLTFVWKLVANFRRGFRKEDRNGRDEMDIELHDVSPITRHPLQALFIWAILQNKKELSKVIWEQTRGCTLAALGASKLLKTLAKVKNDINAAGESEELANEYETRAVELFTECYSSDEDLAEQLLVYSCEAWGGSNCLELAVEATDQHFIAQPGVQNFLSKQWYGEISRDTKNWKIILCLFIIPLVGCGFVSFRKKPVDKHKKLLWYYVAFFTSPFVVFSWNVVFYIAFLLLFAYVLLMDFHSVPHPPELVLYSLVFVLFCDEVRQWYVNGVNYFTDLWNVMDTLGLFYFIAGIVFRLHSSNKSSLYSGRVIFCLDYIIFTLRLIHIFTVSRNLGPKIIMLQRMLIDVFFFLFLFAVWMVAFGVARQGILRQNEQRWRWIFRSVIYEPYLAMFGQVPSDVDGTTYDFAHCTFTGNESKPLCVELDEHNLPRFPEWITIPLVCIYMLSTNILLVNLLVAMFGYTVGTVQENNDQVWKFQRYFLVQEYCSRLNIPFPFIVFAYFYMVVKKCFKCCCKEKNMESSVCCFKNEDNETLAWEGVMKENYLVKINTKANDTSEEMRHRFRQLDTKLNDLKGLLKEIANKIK

For one series, the target named is human TRPM8 receptor (Homo sapiens (Human), UniProt Q7Z2W7). Description: Assay on TRPM8 modulators (Ca2+-sensitive dye, HEK293-TRPM8 test cells, EC50 determination). As to conditions: Table A, structure type 1; assay according to reference example 3. It is filed as cell-based. The text has this:
As a test cell system the human TRPM8 DNA (see plasmid pInd-M8 above) was used to prepare a stable transfixed HEK293 cell line. Here preference is for HEK293 which via the plasmid introduced offers the possibility of induction of the TRPM8 expression by means of tetracycline.
The agonisation or antagonisation of the receptor can be quantified by means of a Ca^2+-sensitive dye (e.g. FURA, Fluo-4, etc.).
To begin with, in a manner known per se, in cell culture flasks a fresh culture of transformed HEK cells is prepared. The HEK293-TRPM8 test cells are removed using trypsin from the cell culture flasks and 40 000 cells/well are sown with 100 μl medium in 96-well plates (Greiner #655948 Poly-D-lysine coated). In order to induce the TRPM8 receptor the growth medium tetracycline is mixed in (DMEM/HG, 10% FCS tetracycline-free, 4 mM L-glutamine, 15 μg/ml blasticidin, 100 μg/ml hygromycin B, 1 μg/ml tetracycline). The next day the cells are charged with Fluo-4Am dye and the test is performed.
The test substances are used in triplicate in concentrations of between 0.1 and 200 μm in the assay. Normally the compounds are kept ready in DMSO solutions and diluted for the assay to a maximum DMSO concentration of 2%.
`CC1(C)CC(=O)C2=C(C1)N1CCc3ccccc3C1CC21SCCS1` (stereo not shown) [Compound 1-2, 2,3,4,5,6,10b,11,12-octahydro-3,3-dimethyl-spiro[4b-azachrysene-12,2′-[1,3]dithiolan]-1-one]: the EC50 (commonly the concentration that produces a half-maximal response) worked out at 600 nM.
`C[C@H]1OC(=O)C2=C1N1CCc3ccccc3C1CC21[S+]([O-])CCS1(=O)=O` (stereo partly shown) [Compound 1-7] gave an EC50 of 700 nM.
Still for that read-out and setting: to `O=C1CCCC2=C1C1(CC3c4ccccc4CCN23)SCCS1` (stereo not shown) [Compound 1-1, 2,3,4,5,6,10b,11,12-octahydro-spiro[4b-azachrysene-12,2′-[1,3]dithioland-]-1-one] belongs 100 nM; to `CC1OC(=O)C2=C1N1CCc3ccccc3C1CC21SCCS1` (stereo not shown) [Compound 1-3, 5,6,10b,11-tetrahydro-3-methyl-spiro[12H-benzo[a]furo[3,4-f]quinolizin-12,2′-[1,3]dithiolan]-1(3H)one], 700 nM; to `CC1(C)CC(=O)C2=C(C1)N1CCc3ccccc3C1CC21[S+]([O-])CCS1(=O)=O` (stereo not shown) [Compound 1-8], 9800 nM.
Same read-out and setting: to `C[C@H]1OC(=O)C2=C1N1CCc3ccccc3C1CC2=O` (stereo partly shown) [Compound 1-9] belongs 10000 nM.

The series is the same for the next values; noted with them: Table B, structure type 2; assay according to reference example 3.
As to `COc1cnc(-c2ccccn2)nc1NC(C)C` [Compound 2-20], the EC50 amounted to 900 nM.
Consider `COc1cnc(-c2ccccn2)nc1N1CCOCC1` [Compound 2-4], for which the midpoint of the response, the EC50, lay at 1000 nM.
On the same count and under the same terms, the value for `COc1cnc(-c2ccccn2)nc1NC(C)C` [Compound 2-19, Isopropyl-(5-methoxy-2-pyridin-2-yl-pyrimidin-4-yl)-ammonium succinate] was 300 nM; that for `CC[C@@H](C)Nc1nc(-c2ccccn2)ncc1OC` (stereo in doubt) [Compound 2-5, Sec-butyl-(5-methoxy-2-pyridin-2-yl-pyrimidin-4-yl)-amine] was 100 nM.
As to `COc1cnc(-c2ccccn2)nc1NC(C)C` [Compound 2-1, Isopropyl-(5-methoxy-2-pyridin-2-yl-pyrimidin-4-yl)-amine], the midpoint of the response, the EC50, lay at 100 nM.
`COc1cnc(-c2ccccn2)nc1NC(C)C` [Compound 2-17, Isopropyl-(5-methoxy-2-pyridin-2-yl-pyrimidin-4-yl)-ammonium malate] returned an EC50 of 400 nM.
For `COc1cnc(-c2ccccn2)nc1NC(C)C` [Compound 2-15, Isopropyl-(5-methoxy-2-pyridin-2-yl-pyrimidin-4-yl)-ammonium citrate], the EC50 was found to be 800 nM.
`COc1cnc(-c2ccccn2)nc1NC(C)C` [Compound 2-16, Isopropyl-(5-methoxy-2-pyridin-2-yl-pyrimidin-4-yl)-ammonium fumarate] registered an EC50 of 1600 nM.
`COc1cnc(-c2ccccn2)nc1NCC1CC1` [Compound 2-11]: it took 1200 nM to reach a half-maximal effect (EC50).
`COCC(C)Nc1nc(-c2ccccn2)ncc1OC` (stereo not shown) [Compound 2-10] yielded an EC50 of 2200 nM.
Still for that read-out and setting: to `COc1cnc(-c2ccccn2)nc1NC1CCC1` [Compound 2-3, Cyclobutyl-(5-methoxy-2-pyridin-2-yl-pyrimidin-4-yl)-amine] belongs 800 nM; to `COc1cnc(-c2ccccn2)nc1NC(C)CCO` (stereo not shown) [Compound 2-9], 1000 nM.

The series is the same for the next values; noted with them: Table C, structure type 3; assay according to reference example 3.
`O=C(/C=C/c1ccccc1Cl)N(c1ccccn1)C1CCCCC1` [Compound 3-41] yielded an EC50 of 700 nM.
In turn, `O=C(/C=C/c1ccc2c(c1)OCO2)N(Cc1ccccc1)c1ccccc1` [Compound 3-10] had an EC50 of 1200 nM.
The same measure, in the same setting: to `O=C(CCc1ccc2c(c1)OCO2)N(c1ccccc1)c1ccccc1` [Compound 3-43] belongs 6800 nM; to `CCN(C(=O)/C=C/c1ccc2c(c1)OCO2)C1CCCCC1` [Compound 3-4], 800 nM.
The same measure, in the same setting: the value for `CC(C)N(Cc1ccccc1)C(=O)/C=C/c1ccc2c(c1)OCO2` [Compound 3-13] was 3900 nM.
In turn, `CCN(Cc1ccccc1)C(=O)/C=C/c1ccc2c(c1)OCO2` [Compound 3-14] showed an EC50 of 1500 nM.
Still for that read-out and setting: to `CCN(CC)C(=O)/C=C/c1ccc2c(c1)OCO2` [Compound 3-15] belongs 12300 nM.
The same measure, in the same setting: the value for `CC(C)N(C(=O)/C=C/c1ccc2c(c1)OCO2)c1ccccc1` [Compound 3-8] was 600 nM; that for `COc1ccc(/C=C/C(=O)N(c2ccccc2)c2ccccc2)cc1` [Compound 3-20, 4-methoxycinammic acid-N,N-diphenylamide] was 1100 nM; that for `COc1ccc(CCC(=O)N(c2ccccn2)C2CCCCC2)cc1` [Compound 3-42] was 3300 nM.
Same read-out and setting: to `O=C(/C=C/c1ccc2c(c1)OCO2)N(c1ccccc1)C1CCCCC1` [Compound 3-3] belongs 900 nM; to `Cc1cccc(/C=C/C(=O)N(c2ccccn2)C2CCCCC2)c1` [Compound 3-31, (E)-N-cyclohexyl-N-pyridin-2-yl-3-m-tolyl-acrylamide], 300 nM; to `CCCCN(C(=O)/C=C/c1ccc2c(c1)OCO2)c1ccccc1` [Compound 3-9], 700 nM.
The compound `CCN(C(=O)/C=C/c1ccc2c(c1)OCO2)c1ccccn1` [Compound 3-11] came in with a 50% effective concentration (EC50) of 6200 nM.
On the same count and under the same terms, the value for `O=C(c1c(Cl)cccc1Cl)N(Cc1ccccc1)c1ccccn1` [Compound 3-49] was 5500 nM; that for `O=C(/C=C/c1ccccc1)N(c1ccccc1)C1CCCCC1` [Compound 3-26, (E)-N-cyclohexyl-3,N-diphenyl-acrylamide] was 600 nM; that for `CCCN(C(=O)/C=C/c1ccc(OC)cc1)c1ccccc1` [Compound 3-21] was 1700 nM.
`COc1cccc(/C=C/C(=O)N(c2ccccc2)c2ccccc2)c1OC` [Compound 3-40] returned an EC50 of 5900 nM.
In the case of `O=C(/C=C/c1ccc2c(c1)OCO2)N(Cc1ccccc1)c1ccccn1` [Compound 3-12], the EC50 turned out to be 700 nM.
Still for that read-out and setting: to `CC(C1CC1)N(C(=O)/C=C/c1ccccc1)c1ccccc1` (stereo not shown) [Compound 3-29] belongs 800 nM; to `O=C(/C=C/c1ccc2c(c1)OCO2)N(c1ccccc1)c1ccccc1` [Compound 3-6, (E)-3-benzo[1,3]dioxol-5-yl-N,N-diphenyl-acrylamide], 800 nM.
`CC(C)CN(C(=O)/C=C/c1ccc2c(c1)OCO2)c1ccc(Cl)cc1` [Compound 3-16] had an EC50 of 8200 nM.
Still for that read-out and setting: to `COc1ccc(OCC(=O)N(c2ccccn2)C2CCCCC2)cc1` [Compound 3-45] belongs 4000 nM.
For the compound `COc1ccc(/C=C/C(=O)N(Cc2ccccc2)c2ccccc2)cc1` [Compound 3-23], the half-maximal effective concentration (EC50) worked out at 3200 nM.
The same measure, in the same setting: the value for `COc1cccc(/C=C/C(=O)N(c2ccccn2)C2CCCCC2)c1OC` [Compound 3-38] was 700 nM; that for `COc1cccc(/C=C/C(=O)N(c2ccccc2)C2CCCCC2)c1OC` [Compound 3-39] was 2600 nM.
Compound `Cc1ccc(/C=C/C(=O)N(c2ccccc2)C(C)C)cc1` [Compound 3-36] gave an EC50 of 1800 nM.
Turning to `O=C(/C=C/c1ccc2c(c1)OCO2)N(c1ccccn1)C1CCCCC1` [Compound 3-1, (E)-3-benzo[1,3]dioxol-5-yl-N-cyclohexyl-N-pyridin-2-yl-acrylamide], a half-maximal effect (EC50) was put at 100 nM.
Still for that read-out and setting: the value for `O=C(/C=C/c1ccccc1)N(c1ccccn1)C1CCCCC1` [Compound 3-25, Cinammic acid-N-cyclohexyl-N-2-pyridylamide] was 2300 nM.

System in the next series: not given
Test: not given
As to conditions: J. Soc. Cosmet. Chem. 1978, 29, 185-200, study of approximately 1200 compounds; cited from earlier work.
For `CCOC(=O)CNC(=O)C1CC(C)CCC1C(C)C` (stereo not shown) [WS5, N-[[5-methyl-2-(1-methylethyl)cyclohexyl]carbonyl]glycine ethyl ester], the cooling action entry is on record as “most strongly cooling active ingredients”.
For `CCNC(=O)C1CC(C)CCC1C(C)C` (stereo not shown) [WS-3, menthane-3-carboxylic acid-N-ethylamide], the cooling action result is given as “most strongly cooling active ingredients”.
Regarding `CC1CCC(C(C)C)C(C(=O)NCC(=O)O)C1` [N^α-(L-menthanecarbonyl)glycine], the cooling action entry is “very weak cooling action”.

Still in this series, the particulars now being: US 2005/0222256; cited from earlier work.
For `CCOC(=O)CNC(=O)C1CC(C)CCC1C(C)C` (stereo not shown) [WS5, N-[[5-methyl-2-(1-methylethyl)cyclohexyl]carbonyl]glycine ethyl ester], the irritancy result is recorded as “strongly irritant”.

The test system of a further series is panel of sensorially trained experts. Description: Sensorial assessment of toothpastes containing the flavourings (Examples S-1 to S-4). Conditions: flavouring 1.2 wt. % in toothpaste base, usage conditions. It is filed as in vivo, human. The protocol:
The flavourings obtained in this way were worked into a standard silica toothpaste base in a concentration of 1.2 wt. %. The toothpastes were tested by a panel of sensorially trained experts under usage conditions. The sensorial assessments were as follows: very pleasant, rich and voluminous minty freshness with a comparatively fast onset, strong and marked and comparatively very long-lasting cooling fresh impression, wherein it was noticeable that the sensation of coldness was rapidly perceptible in the whole of the oral cavity. Additionally the flavour was assessed as being softer and more neutral and less sharp than without the compounds according to the invention.
The flavourings in a concentration of 1.2% were worked into a toothpaste base comprising an amount of 65% of sodium bicarbonate. The toothpastes were tested under usage conditions and assessed by a panel of sensorially trained experts. In each case a pleasant, powerful spearmint flavour in combination with a voluminous and long-lasting fresh taste was noted.
The flavourings obtained in this way were in each case worked into a standard silica toothpaste base in a concentration of 1.2 wt. %. The toothpastes were tested by a panel of sensorially trained experts under usage conditions. […]
As for `CCNC(=O)C1CC(C)CCC1C(C)C` (stereo not shown) [WS-3, menthane-3-carboxylic acid-N-ethylamide], the “sensorial assessment of cooling fresh impression” value is “less powerful, less voluminous and less long-lasting”.
